*1 amine or outer side, *2 acyl side, *3 side chain or, on linkers, in order; H or OH if unused. Where a SMILES comes first, the peptide text is derived from it. Side-chain parts run from the residue outwards. [ ]: non-standard residue; d: D form. The star is where a group is joined. C20 diacid = O=C(O)CCCCCCCCCCCCCCCCCCC(=O)*; C18 diacid = O=C(O)CCCCCCCCCCCCCCCCC(=O)*; αMePhe(2-F) = C[C@](N)(Cc1ccccc1F)C(=O)O; γGlu = O=C(O)[C@H](CCC(=O)[*:2])N[*:1]; 4Pal = N[C@@H](Cc1ccncc1)C(=O)O; αMeL = CC(C)C[C@](C)(N)C(=O)O; AEEA = NCCOCCOCC(=O)O; Aib = CC(C)(N)C(=O)O
Experiments:
human GLP-1R = target: T1, human GLP-1R (Homo sapiens, UniProt P43220); test: [125I]-GLP-1 binding, SPA with WGA beads, 0.1% bacitracin; conditions: geometric mean, read-out: hGLP1R Ki
T1 construct: expressed in transfected cells; crude membranes
Procedure, shortened: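 Binding buffer was 25 mM HEPES pH 7.4 with 2.5 mM CaCl2, 1 mM MgCl2, 0.1% (w/v) bacitracin, 0.003% Tween-20 and EDTA-free protease inhibitors. Four-parameter regression gave IC50, converted to Ki (geometric mean, SEM, n independent days).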

human GIPR = target: T2, human GIPR (Homo sapiens, UniProt P48546); test: [125I]-GIP binding, SPA with WGA beads, 0.1% bacitracin; conditions: geometric mean, read-out: hGIPR Ki
T2 construct: expressed in transfected cells; crude membranes
T2 sequence (P48546 22-466): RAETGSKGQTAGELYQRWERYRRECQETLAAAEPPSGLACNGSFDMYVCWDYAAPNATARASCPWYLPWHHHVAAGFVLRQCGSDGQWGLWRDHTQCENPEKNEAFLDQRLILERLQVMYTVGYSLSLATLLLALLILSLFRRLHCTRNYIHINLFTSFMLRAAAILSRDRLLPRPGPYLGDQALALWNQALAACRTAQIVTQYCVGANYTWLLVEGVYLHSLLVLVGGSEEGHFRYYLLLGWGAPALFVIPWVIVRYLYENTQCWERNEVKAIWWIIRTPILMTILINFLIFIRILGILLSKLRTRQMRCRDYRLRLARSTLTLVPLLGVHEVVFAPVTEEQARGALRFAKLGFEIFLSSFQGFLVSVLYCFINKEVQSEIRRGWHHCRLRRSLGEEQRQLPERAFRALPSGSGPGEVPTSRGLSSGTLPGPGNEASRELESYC
Procedure, shortened: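 Ki values are geometric means (SEM, n independent days), derived from four-parameter nonlinear regression of IC50. Membranes came from hGIPR-expressing CHO cells.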

T1 sequence (P43220 24-463): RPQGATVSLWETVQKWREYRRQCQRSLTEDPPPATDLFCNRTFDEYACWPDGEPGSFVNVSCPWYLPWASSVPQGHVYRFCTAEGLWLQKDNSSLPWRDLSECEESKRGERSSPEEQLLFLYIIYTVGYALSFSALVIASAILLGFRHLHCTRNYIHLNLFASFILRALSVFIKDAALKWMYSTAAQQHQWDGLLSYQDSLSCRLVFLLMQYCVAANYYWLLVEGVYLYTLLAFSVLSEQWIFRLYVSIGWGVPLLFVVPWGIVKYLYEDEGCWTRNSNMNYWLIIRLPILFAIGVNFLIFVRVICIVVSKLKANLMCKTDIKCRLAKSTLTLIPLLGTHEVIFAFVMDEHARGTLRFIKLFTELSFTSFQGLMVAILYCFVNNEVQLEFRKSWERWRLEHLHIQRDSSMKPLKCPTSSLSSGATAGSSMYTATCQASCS

SMILES	Ki (human GLP-1R) [nM]	Ki (human GIPR) [nM]
CC[C@H](C)[C@H](NC(=O)[C@H](CO)NC(=O)[C@H](Cc1ccc(O)cc1)NC(=O)[C@H](CC(=O)O)NC(=O)[C@H](CO)NC(=O)[C@@H](NC(=O)[C@H](CC(C)C)NC(=O)[C@@H](NC(=O)CNC(=O)[C@H](CCC(=O)O)NC(=O)[C@@H](C)NC(=O)[C@@H](N)Cc1ccc(O)cc1)[C@@H](C)O)[C@@H](C)CC)C(=O)N[C@@H](CC(C)C)C(=O)N[C@@H](CC(C)C)C(=O)N[C@@H](CC(=O)O)C(=O)N[C@@H](CCCCN)C(=O)N[C@@H](CCCCNC(=O)COCCOCCNC(=O)COCCOCCNC(=O)CC[C@H](NC(=O)CCCCCCCCCCCCCCCCC(=O)O)C(=O)O)C(=O)N[C@@H](C)C(=O)N[C@@H](CCC(N)=O)C(=O)NC(C)(C)C(=O)N[C@@H](CC(=O)O)C(=O)N[C@@H](Cc1ccccc1)C(=O)N[C@H](C(=O)N[C@@H](CC(N)=O)C(=O)N[C@@H](Cc1c[nH]c2ccccc12)C(=O)N[C@@H](CC(C)C)C(=O)N[C@@H](CC(C)C)C(=O)N[C@@H](C)C(=O)N[C@@H](CCC(N)=O)C(=O)NCC(=O)N1CCC[C@H]1C(=O)N[C@@H](CO)C(=O)N[C@@H](CO)C(=O)NCC(=O)N[C@@H](C)C(=O)N1CCC[C@H]1C(=O)N1CCC[C@H]1C(=O)N1CCC[C@H]1C(=O)N[C@@H](CO)C(N)=O)C(C)C [Example 32] (H-Y[dA]EGTLISDYSILLDKK([AEEA-AEEA-γGlu-C18 diacid])AQ[Aib]DFVNWLLAQGPSSGAPPPS-NH2)	85.2	0.0343
CC[C@H](C)[C@H](NC(=O)[C@H](CO)NC(=O)[C@H](Cc1ccc(O)cc1)NC(=O)[C@H](CC(=O)O)NC(=O)[C@H](CO)NC(=O)[C@@H](NC(=O)[C@](C)(Cc1ccccc1F)NC(=O)[C@@H](NC(=O)CNC(=O)[C@H](CCC(=O)O)NC(=O)C(C)(C)NC(=O)[C@@H](N)Cc1ccc(O)cc1)[C@@H](C)O)[C@@H](C)CC)C(=O)N[C@@](C)(CC(C)C)C(=O)N[C@@H](CC(C)C)C(=O)N[C@@H](CC(=O)O)C(=O)N[C@@H](CCCCN)C(=O)N[C@@H](CCCCNC(=O)COCCOCCNC(=O)COCCOCCNC(=O)CC[C@H](NC(=O)CCCCCCCCCCCCCCCCCCC(=O)O)C(=O)O)C(=O)N[C@@H](Cc1c[nH]cn1)C(=O)N[C@@H](CCC(N)=O)C(=O)NC(C)(C)C(=O)N[C@@H](CC(=O)O)C(=O)N[C@@H](Cc1ccccc1)C(=O)N[C@H](C(=O)N[C@@H](CCC(=O)O)C(=O)N[C@@H](Cc1ccncc1)C(=O)N[C@@H](CC(C)C)C(=O)N[C@@H](CC(C)C)C(=O)N[C@@H](C)C(=O)NCC(=O)NCC(=O)N1CCC[C@H]1C(=O)N[C@@H](CO)C(=O)N[C@@H](CO)C(=O)NCC(=O)N[C@@H](C)C(=O)N1CCC[C@H]1C(=O)N1CCC[C@H]1C(=O)N1CCC[C@H]1C(=O)N[C@@H](CO)C(N)=O)C(C)C [Example 51] (H-Y[Aib]EGT[αMePhe(2-F)]ISDYSI[αMeL]LDKK([AEEA-AEEA-γGlu-C20 diacid])HQ[Aib]DFVE[4Pal]LLAGGPSSGAPPPS-NH2)	54.1	0.0386

— US12723063B2, “GIPR-agonist compounds” (Eli Lilly and Company, priority 2019, dated 2026)
